Target: T1, 14-3-3γ/SOS1 complex (Homo sapiens, UniProt P61981)
T1 construct: made in house; host or cells: E. coli NiCo21 (DE3)
T1 sequence (P61981 1-247): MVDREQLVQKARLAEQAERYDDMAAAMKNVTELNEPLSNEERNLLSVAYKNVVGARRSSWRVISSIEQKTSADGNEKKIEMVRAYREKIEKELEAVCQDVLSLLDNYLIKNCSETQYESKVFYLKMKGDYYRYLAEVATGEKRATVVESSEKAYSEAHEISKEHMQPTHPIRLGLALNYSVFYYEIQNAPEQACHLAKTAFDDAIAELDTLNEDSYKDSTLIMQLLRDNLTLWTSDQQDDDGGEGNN
Test: FA selectivity screen, SOS1 client peptide
Format: binding
Details: 100 μM compound, SOS1 peptide (+1 Ala)
Method: Drugging the hub protein 14-3-3 raises the challenge of selectivity, given that 14-3-3 binds several hundred phosphoprotein partners (Figure 4a).[54] We hypothesized that the interplay of chemical reactivity, the topology, and functionality of the composite binding pocket shaped by 14-3-3 and the interaction partner drives selective stabilization of the 14-3-3/ERRγ complex.[53] To validate selectivity, molecular locks 5 and 10 were tested against a panel of nine 14-3-3 client peptides in an FA assay, and the SF100 was determined for each 14-3-3 PPI (Figure 4b and Figures S18–S20). This client panel contained a diverse representation of 14-3-3 binding proteins, differing for example in size and hydrophobicity of the +1 amino acid. Importantly, clients PKR and RND3, each containing a +1 Cys, were included in the panel.
Figure S20. KD and SF100 plot – selectivity screen. […]
nine different client peptides in presence of DMSO (negative control) or 100 µM of compound 1, 5 or 10 (based on binding curves in Figure S19). […]
A pPROEX HTb expression vector encoding the human 14-3-3 protein gamma (14-3-3γ) with a N-terminal his6-tag was transformed by heat shock into NiCo21 (DE3) competent cells. […] Finally, the protein was concentrated to ∼60 mg/mL, analyzed Q-Tof LC/MS, and aliquots were flash-frozen for storage at −80 °C. […]

Compound: CN(C)CCSSCCN(C)C(=O)c1ccc(C=O)c(F)c1 [compound 5]
- off-target effect in client screen: minor off-target effects

Reference: PMC10064330, “Reversible Dual-Covalent Molecular Locking of the 14-3-3/ERRγ Protein–Protein Interaction as a Molecular Glue Drug Discovery Approach” (Journal of the American Chemical Society, 2023)
